Data as given in ChEMBL document CHEMBL1150622, “Three new modified limonoids from Khaya senegalensis” (J Nat Prod, 2002).
Activity calls are given as the source filed them. The rule behind the calls is not given here.

Assays:
[1] = system: MT4; assay: Cytotoxicity against human MT4 cells at 100 ug/mL; type: cell-based
[2] = system: Human immunodeficiency virus 1; assay: Antiviral activity against HIV1 in human MT4 cells assessed as inhibition of virus-induced cytopathic effect at 100 ug/mL; type: functional, organism-based

Structure (SMILES): COC(=O)C[C@H]1[C@]2(C)C[C@]3(O)[C@H]4[C@@H](O[C@]56CC(=O)O[C@@H](c7ccoc7)[C@]5(C)CC[C@H]([C@]13C)[C@]46O)[C@H]2O [khayanolide D]
- Activity [1]: Not Active
- Activity [2]: inactive

Structure (SMILES): COC(=O)[C@]1(C)[C@@H]([C@@]2(C)C=CC(=O)C(C)(C)[C@@H]2CO[C@@H]2O[C@H](CO)[C@@H](O)[C@H](O)[C@H]2O)CC[C@@]2(C)[C@H](c3ccoc3)OC(=O)[C@H]3O[C@]321 [KHAYANOSIDE]
- Activity [1]: Not Active
- Activity [2]: inactive

Structure (SMILES): COC(=O)[C@H](O)[C@@H]1[C@@]2(C)[C@H]3CC[C@@]4(C)[C@H](c5ccoc5)OC(=O)C[C@@]45O[C@H]4C(=O)[C@@]1(C)C[C@]2(OC(C)=O)[C@@H]4[C@@]35O [khayanolide E]
- Activity [1]: Not Active
- Activity [2]: inactive
